From patent publication US9295624B2, “Amide derivative and whitening agent” (AJINOMOTO CO. INC., priority 2009, dated 2016)

Tested on: B16 melanom
Assay: Melanin production suppression test
Format: cell-based
Settings: B16 melanoma cells, 3 days incubation, absorbance at 450 nm of medium, control = 100%; read-out: 50% melanin production-suppressive concentration IC50
Description: B16 melanom (purchased from Dainippon Sumitomo Pharma Co., Ltd.) was cultured in DMEM (Dulbecco's Modified Eagle Medium, high glucose, containing 10% serum). After confluent, the cells were trypsinized and seeded in a 96-well plate. On the following day, after adhesion of the cells to the plate, the medium was replaced with DMEM containing each evaluation sample (control (no sample addition), sample of each Production Example) at a given evaluation concentration (diluted from […] according to sample), and the cells were incubated for 3 days. The 96-well plate was shaken in a plateshaker for 5 minutes, the absorbance at 450 nm was measured by a microplatereader (Benchmark microplatereader, manufactured by BIORAD), and the amount of melanin in the medium in each well was compared. The absorbance at 3 days after addition of a given concentration of each sample was shown in relative percentage based on the measurement value (absorbance) of control (no sample addition) as 100%. As Comparative Example, a similar test was performed using kojic acid (KoA), 4-hexylresorcinol, CS (N-(p-coumaroyl)serotonin or N-[2-(5-hydroxy-1H-indol-3-yl)ethyl]-3-(4-hydroxyphenyl)-2-propenamide) and FS (N-feruloylcoumaroylserotonin or N-[2-(5-hydroxy-1H-indol-3-yl)ethyl]-3-(4-hydroxy-3-methoxyphenyl-2-propenamide). The results are shown in FIGS. 1 to 5. The concentration necessary for suppressing production of melanin in each sample by 50%, based on the amount of melanin in the control as 100%, was calculated as 50% melanin production-suppressive concentration IC50 (μM). The results are shown in Table 2.
Kojic acid (KoA) used was purchased from Sigma-Aldrich Japan K.K., 4-n-hexylresorcinol used was purchased from TOKYO CHEMICAL INDUSTRY CO., LTD., and CS and FS used were synthesized by Ajinomoto Co., Inc.

Row | IC50 [µM] | Compound
1 | 42.4 | COc1cc(C=CC(=O)NCCc2c[nH]c3ccc(O)cc23)ccc1O [FS, reference compound]

Same assay, conditions: Mus musculus, 72 h; B16 melanoma cells, 3 days incubation, absorbance at 450 nm of medium, control = 100%; read-out: 50% melanin production-suppressive concentration IC50

Row | IC50 [µM] | Compound
2 | 23.5 | CCCCCCc1ccc(O)cc1O [4-hexylresorcinol, reference compound]
3 | 28.5 | O=C(C=Cc1ccc(O)cc1)NCCc1c[nH]c2ccc(O)cc12 [CS, N-[2-(5-hydroxy-1H-indol-3-yl)ethyl]-3-(4-hydroxyphenyl)-2-propenamide, reference compound]
4 | 10.7 | O=C(/C=C/c1ccc(O)cc1O)NCCc1c[nH]c2ccc(O)cc12 [Example 4, N-[2-(5-hydroxy-1H-indol-3-yl)ethyl]-3-(2,4-dihydroxyphenyl)-2-propenamide]
5 | 21.5 | O=C(/C=C/c1ccc(O)cc1)NCCc1c[nH]c2ccccc12 [Example 13]
6 | 14.6 | Cc1cc(/C=C/C(=O)NCCc2c[nH]c3ccc(O)cc23)ccc1O [Example 17, N-[2-(5-hydroxy-1H-indol-3-yl)ethyl]-3-(3-methyl-4-hydroxyphenyl)-2-propenamide]
7 | 33.3 | COc1ccc(CCNC(=O)/C=C/c2ccc(O)cc2)cc1 [Example 24]
8 | 17.1 | O=C(/C=C/c1ccc(O)cc1O)NCCc1c[nH]c2ccccc12 [Example 30]
9 | 22.4 | O=C(NCCc1c[nH]c2ccc(O)cc12)c1cc(O)cc(O)c1 [Example 36]
10 | 1.9 | O=C(NCCc1c[nH]c2ccc(O)cc12)c1ccc(O)c(O)c1 [Reference Example 2, reference compound]
11 | 315 | O=c1cc(CO)occ1O [kojic acid, reference compound]

Tested on: B16 melanom
Assay: Cytotoxicity test (neutral red assay)
Format: cell-based
Settings: neutral red assay after melanin test, absorbance at 540 nm
Description: After measurement of the absorbance in the melanin production suppression test of Experimental Example 1, the evaluation sample solution was removed from the plate, and each well was rinsed with DMEM (200 μl, high glucose, containing 10% serum). A medium containing NR (neutral red) was added to each well at 200 μl/well, and the plate was left standing for 2 hours at 37° C., 5% CO2 under a saturated vapor. The medium was removed, and a washing fixative solution (mixture of equal amounts of 2 wt % calcium chloride solution and 2 wt % formalin solution) was added at 200 μl/well. After 1 minute, the washing fixative solution was removed. An NR extract (acetic acid-ethanol, 200 μl/well) was added, and the mixture was shaken in a plateshaker for 15 minutes. NR uptake by viable cells was examined by measuring the absorbance of the NR extract at 540 nm by a microplatereader (Benchmark microplatereader, manufactured by BIORAD). The cytotoxicity of each sample was calculated as a relative percentage of the absorbance of NR extract of the cells added with a given concentration of each sample to the measurement value (absorbance) of a control NR extract (no sample) as 100%.

Row | Compound | cytotoxicity (NR uptake by viable cells)
12 | O=C(NCCc1c[nH]c2ccc(O)cc12)c1cccc(O)c1O [Example 32] | showed cytotoxicity
13 | O=C(NCCc1c[nH]c2ccc(O)cc12)c1ccc(O)cc1O [Example 33] | showed cytotoxicity
